Results taken from publication PMC13538172, “Zonisamide nanodiamonds for brain targeting: A comprehensive study utilising in silico, in vitro, in vivo, and molecular investigation for successful nose-to-brain delivery for epilepsy management” (Drug Delivery and Translational Research, 2025).

Tests used:
[1] = tested on: experimentally induced TLE in rats; experiment: EEG and behavioural seizures in pilocarpine-induced temporal lobe epilepsy (TLE); type: in vivo, adult male Wistar albino rats; details: intranasal 16 mg/kg/day of ZNS for 7 days
Procedure: (§1) Temporal lobe epilepsy (TLE) was induced in rats using the pilocarpine model according to the method of Arshad et al.. Prior to the experiment, rats were housed in plastic cages at October University for Modern Science and Arts under controlled environmental conditions (temperatures of 25°±3°C and 50% humidity) with free access to water and softened standard pellet chow. The rats were injected with pilocarpine (300 mg/kg; i.p.) to induce status epilepticus (SE). Atropine (1 mg/kg; i.p.) was injected 30 minutes before pilocarpine injection to antagonize the peripheral muscarinic activity. SE was defined using the modified Racine scale by observing seizure severity categorized as stages 4 and 5. […] The SE seizures were left to last for 3 hours to induce hippocampus damage, after which diazepam (10 mg/kg; i.p.) was injected to attenuate the seizures. Lubricant ophthalmic gel was applied with a cotton swab to each eye to prevent the corneas from drying out during the seizures. The rats were hydrated with sterile Ringer's lactate injections (1 mL, i.p.) for 3 days post-SE induction. Animal welfare assessments were conducted multiple times per day for several days after the induction of SE. The Pilocarpine-inducted rats began to develop spontaneous recurrent seizures (SRS) as a characteristic of TLE within 3 weeks, after which the treatments were injected for 7 days, and the in vivo pharmacodynamic investigation was conducted. […]
At the end of the experiment, SRS was monitored using a video recorder (6 hours/day) and scored according to the Racine scale. In addition, the brain activity was recorded using an electroencephalogram (EEG, powerlab module, which consists of Power-lab/8sp and Animal Bio-Amplifier, Australia). […]

[2] = tested on: neuron-specific enolase (NSE); experiment: Serum NSE by ELISA in TLE rats; type: in vivo; details: compared to the TLE control rats; intranasal, 7 days
Procedure: as §1, with “induction.” for “induction. Animal welfare assessments were conducted multiple times per day for several days after the induction of SE. The Pilocarpine-inducted rats began to develop spontaneous recurrent seizures (SRS) as a characteristic of TLE within 3 weeks, after which the treatments were injected for 7 days, and the in vivo pharmacodynamic investigation was conducted.”
The serum levels of neuron-specific enolase (NSE), matrix metallopeptidase-9 (MMP-9), neurofilament light polypeptide (NEFL), and brain-derived neurotrophic factor (BDNF) were measured by ELISA technique using the following standard kits CAT no. […]

[3] = tested on: brain hippocampus; experiment: Histopathological examination of the brain hippocampus in TLE rats; type: in vivo; details: H&E, Fig. 12
Procedure: as §1, with “Arshad” left out, “SE.” for “SE. The Pilocarpine-inducted rats began to develop spontaneous recurrent seizures (SRS) as a characteristic of TLE within 3 weeks, after which the treatments were injected for 7 days, and the in vivo pharmacodynamic investigation was conducted.”

NS(=O)(=O)Cc1noc2ccccc12 [ZNS, Zonisamide]
maximum spike amplitude during the SRS ([1]; n = 8): 0.4 ± 0.1 mV
mean duration of single SRS (epileptogenic ictal discharge in EEG) ([1]; n = 8): 96.5 ± 2.9 s
incidence of motor seizures per 6 h ([1]; video recording 6 hours per day): 3.5 ± 0.5
decrease in serum level of NSE [2]: 30.6%
hippocampal histopathology, result in words [3]: noticeable neuroprotective efficacy
